{"source": "paper PMC5849061", "about": "(European journal of medicinal chemistry, 2018)", "key": {"MRSA USA400": {"tested_on": "MRSA USA400", "assay": "Time-kill assay against MRSA USA400", "conditions": "4 × MIC; for kill kinetics (in words): MRSA USA400"}, "[1]": {"tested_on": "human colorectal cells (HRT-18)", "assay": "Cytotoxicity against human colorectal", "conditions": "HRT-18 cells, two hours, MTS; tested 16, 32, 64 μg/mL"}, "[2]": {"tested_on": "murine macrophage (J774) cells", "assay": "Cytotoxicity against J774 macrophage cells", "type": "cell-based", "conditions": "24-hour incubation, MTS, tested 8, 16, 32 μg/mL"}, "[3]": {"tested_on": "MRSA USA400 inside infected macrophage (J774) cells", "assay": "Clearance of intracellular MRSA in infected J774 macrophages", "type": "cell-based, Staphylococcus aureus", "conditions": "24 hours"}, "human FPPS (HsFPPS)": {"molecular_target": "T1, human FPPS (HsFPPS) (Homo sapiens, UniProt P14324)", "T1 sequence (P14324 1-419)": "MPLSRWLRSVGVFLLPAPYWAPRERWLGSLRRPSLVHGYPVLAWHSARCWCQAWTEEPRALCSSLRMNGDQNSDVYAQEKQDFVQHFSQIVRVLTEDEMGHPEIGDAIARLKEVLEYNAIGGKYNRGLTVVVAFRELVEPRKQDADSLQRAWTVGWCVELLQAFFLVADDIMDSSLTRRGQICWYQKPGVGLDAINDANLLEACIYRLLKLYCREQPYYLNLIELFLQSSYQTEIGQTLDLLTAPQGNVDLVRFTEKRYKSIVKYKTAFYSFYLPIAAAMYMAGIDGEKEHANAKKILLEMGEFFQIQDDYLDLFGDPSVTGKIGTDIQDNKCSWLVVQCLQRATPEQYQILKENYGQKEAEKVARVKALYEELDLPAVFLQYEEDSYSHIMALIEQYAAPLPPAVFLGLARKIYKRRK", "assay": "Human FPPS inhibition", "type": "biochemical", "conditions": "data not shown"}, "Caco-2 cells": {"tested_on": "Caco-2 cells", "assay": "Caco-2 bidirectional permeability assay", "type": "in vitro ADME, human"}, "[4]": {"assay": "Metabolic stability in pooled human liver microsomes", "type": "in vitro ADME", "conditions": "for Notes (metabolic stability classification): HLM"}, "[5]": {"assay": "In vivo pharmacokinetics in rat, single IV bolus", "parameters": "species or system Sprague-Dawley rats", "conditions": "male, Sprague-Dawley, plasma, 2 μM solution, t1/2, rat, two-compartment model"}, "[6]": {"tested_on": "PMF in E. coli inverted membrane vesicles (IMVs)", "assay": "IMV protonophore uncoupler assay"}, "MRSA USA300": {"tested_on": "MRSA USA300", "assay": "Time-kill assay against MRSA USA300", "conditions": "4 × MIC"}, "VRS11a (VRSA)": {"tested_on": "VRS11a (VRSA)", "assay": "Broth microdilution MIC/MBC against VRS11a", "type": "cell-based", "conditions": "Staphylococcus aureus"}, "[7]": {"conditions": "human, pooled human liver microsomes, pH 7.4"}}}
{"smiles": "C/C(=N\\NC(=N)N)c1sc(-c2ccc(C#Cc3ccccc3)cc2)nc1C", "note": "[Compound 5]", "values": [{"measurement": "kill kinetics (in words)", "setting": "MRSA USA400", "value": "bacteriostatic"}, {"measurement": "non-toxic up to (concentration)", "setting": "[1]", "value": 32, "unit": "µg/mL"}]}
{"smiles": "C/C(=N\\NC(=N)N)c1sc(-c2ccc(C#CC3CC3)cc2)nc1C", "note": "[Compound 9, 2-(1-(2-(4-(Cyclopropylethynyl)phenyl)-4-methylthiazol-5-yl)ethylidene) hydrazine-1-carboximidamide]", "values": [{"measurement": "non-toxic to macrophage cells up to a concentration of", "setting": "[2]", "value": 8, "unit": "µg/mL"}, {"measurement": "reduction of the burden of intracellular MRSA", "setting": "[3]; 8 μg/mL (4 × MIC)", "value": "neither the alicyclic-containing derivatives 6, 7 or 9 (4 × MIC) nor vancomycin (4 × MIC) were able to produce a significant reduction"}, {"measurement": "inhibition of HsFPPS", "setting": "human FPPS (HsFPPS)", "value": "no inhibition"}, {"measurement": "Notes (permeability classification)", "setting": "Caco-2 cells", "value": "Low permeability"}, {"measurement": "Notes (metabolic stability classification)", "setting": "[4]", "value": "Stable to metabolism"}, {"measurement": "half-life at 0.1 μM", "setting": "[4]; [7]", "value": 4.8, "unit": "h"}, {"measurement": "microsomal CLint at 0.1 μM", "setting": "[4]; [7]", "value": "< 116", "unit": "µL/min/mg"}, {"measurement": "half-life", "setting": "[5]", "value": "~4.5", "unit": "h"}, {"measurement": "time to complete eradication of MRSA USA400", "setting": "MRSA USA400", "value": 24, "unit": "h"}, {"measurement": "kill kinetics (in words)", "setting": "MRSA USA400", "value": "slow bactericidal activity"}, {"measurement": "non-toxic up to (concentration)", "setting": "[1]", "value": 32, "unit": "µg/mL"}, {"measurement": "EC50 for PMF collapse (corresponding mass concentration)", "setting": "[6]; ATP-powered PMF generation", "value": 8, "unit": "µg/mL"}, {"measurement": "EC50 for PMF collapse (corresponding mass concentration)", "setting": "[6]; succinate/O2-powered PMF generation", "value": 9.5, "unit": "µg/mL"}]}
{"smiles": "CCCCCC#Cc1ccc(-c2nc(C)c(/C(C)=N/NC(=N)N)s2)cc1", "note": "[Compound 11, 2-(1-(2-(4-(Hep-1-yn-1-yl)phenyl)-4-methylthiazol-5-yl)ethylidene)hydraz-ine-1-carboximidamide]", "values": [{"measurement": "non-toxic to macrophage cells up to a concentration of", "setting": "[2]", "value": 16, "unit": "µg/mL"}, {"measurement": "reduction of the burden of intracellular MRSA", "setting": "[3]; 16 μg/mL", "value": "complete eradication"}, {"measurement": "kill kinetics (in words)", "setting": "MRSA USA300", "value": "rapid bactericidal activity"}, {"measurement": "non-toxic up to (concentration)", "setting": "[1]", "value": 32, "unit": "µg/mL"}]}
{"smiles": "CN[C@H](CC(C)C)C(=O)N[C@H]1C(=O)N[C@@H](CC(N)=O)C(=O)N[C@H]2C(=O)N[C@H]3C(=O)N[C@H](C(=O)N[C@H](C(=O)O)c4cc(O)cc(O)c4-c4cc3ccc4O)[C@H](O)c3ccc(c(Cl)c3)Oc3cc2cc(c3O[C@@H]2O[C@H](CO)[C@@H](O)[C@H](O)[C@H]2O[C@H]2C[C@](C)(N)[C@H](O)[C@H](C)O2)Oc2ccc(cc2Cl)[C@H]1O", "note": "[Vancomycin, reference compound]", "values": [{"measurement": "time to complete eradication of MRSA USA400", "setting": "MRSA USA400", "value": 24, "unit": "h"}]}
{"smiles": "CCCC#Cc1ccc(-c2nc(C)c(/C(C)=N/NC(=N)N)s2)cc1", "note": "[Compound 10, 2-(1-(4-Methyl-2-(4-(pent-1-yn-1-yl)phenyl)thiazol-5-yl)ethylidene)hydrazine-1-carboximidamide]", "values": [{"measurement": "MIC", "setting": "VRS11a (VRSA)", "value": 0.5, "unit": "µg/mL"}, {"measurement": "non-toxic to macrophage cells up to a concentration of", "setting": "[2]", "value": 16, "unit": "µg/mL"}, {"measurement": "reduction of the burden of intracellular MRSA", "setting": "[3]; 16 μg/mL", "value": "complete eradication"}, {"measurement": "kill kinetics (in words)", "setting": "MRSA USA300", "value": "rapid bactericidal activity"}, {"measurement": "non-toxic up to (concentration)", "setting": "[1]", "value": 32, "unit": "µg/mL"}]}
{"smiles": "C/C(=N\\NC1=NCCN1)c1sc(-c2ccc(C#CC3CC3)cc2)nc1C", "note": "[Compound 19, 2-(4-(Cyclopropylethynyl)phenyl)-5-(1-(2-(4,5-dihydro-1H-imidazol-2-yl)hydrazono)ethyl)-4-methylthiazole]", "values": [{"measurement": "Notes (metabolic stability classification)", "setting": "[4]", "value": "Stable to metabolism"}]}
{"smiles": "C/C(=N\\NC(=N)N)c1sc(-c2ccc(C#CC3CCCCC3)cc2)nc1C", "note": "[Compound 6, 2-(1-(2-(4-(Cyclohexylethynyl)phenyl)-4-methylthiazol-5-yl)ethylidene)hydrazine-1-carboximidamide]", "values": [{"measurement": "reduction of the burden of intracellular MRSA", "setting": "[3]; 16 μg/mL", "value": "neither the alicyclic-containing derivatives 6, 7 or 9 (4 × MIC) nor vancomycin (4 × MIC) were able to produce a significant reduction"}, {"measurement": "non-toxic up to (concentration)", "setting": "[1]", "value": 32, "unit": "µg/mL"}]}
{"smiles": "CCCCCCC#Cc1ccc(-c2nc(C)c(/C(C)=N/NC(=N)N)s2)cc1", "note": "[Compound 12]", "values": [{"measurement": "non-toxic up to (concentration)", "setting": "[1]", "value": 32, "unit": "µg/mL"}]}
{"smiles": "C/C(=N\\NC(=N)N)c1sc(-c2ccc(C#CC3CCCC3)cc2)nc1C", "note": "[Compound 7, 2-{1-[2-(4-(Cyclopentylethynyl)phenyl)-4-methylthiazol-5-yl]ethylidene} hydrazine-1-carboximidamide]", "values": [{"measurement": "non-toxic to macrophage cells up to a concentration of", "setting": "[2]", "value": 8, "unit": "µg/mL"}, {"measurement": "reduction of the burden of intracellular MRSA", "setting": "[3]; 8 μg/mL (4 × MIC)", "value": "neither the alicyclic-containing derivatives 6, 7 or 9 (4 × MIC) nor vancomycin (4 × MIC) were able to produce a significant reduction"}, {"measurement": "reduction in MRSA CFU/mL after 8 hours", "setting": "MRSA USA400; 8 hours, re-growth thereafter", "value": "~3", "unit": "log10"}, {"measurement": "non-toxic up to (concentration)", "setting": "[1]", "value": 32, "unit": "µg/mL"}]}
{"smiles": "C/C(=N\\NC(=N)N)c1sc(-c2ccc(C#CC(C)(C)C)cc2)nc1C", "note": "[Compound 13, 2-(1-(2-(4-(3,3-Dimethylbut-1-yn-1-yl)-phenyl)-4-methylthiazol-5-yl)ethylidene) hydrazine-1-carboximidamide]", "values": [{"measurement": "non-toxic up to (concentration)", "setting": "[1]", "value": 32, "unit": "µg/mL"}]}
{"smiles": "C/C(=N\\NC1=NCCN1)c1sc(-c2ccc(C#CC(C)(C)C)cc2)nc1C", "note": "[Compound 23, 5-(1-(2-(4,5-Dihydro-1H-imidazol-2-yl)hydrazono)ethyl)-2-(4-(3,3-dimethylbut-1-yn-1-yl)phenyl)-4-methylthiazole]", "values": [{"measurement": "non-toxic up to (concentration)", "setting": "[1]", "value": 32, "unit": "µg/mL"}]}
